This passage reports EC50 and Emax results from patent US20260176320A1, “MODULATORS OF G-PROTEIN COUPLED RECEPTORS” (priority 2018, published 2026).

Where two headings read alike, the source gives them in different places. Square brackets hold non-standard residues; d marks the D form. Peptide text beside a SMILES is read from it. * marks the point of attachment. X1 = O=C(CSCC(=O)*)NCCN1C(=O)c2ccccc2C1=O; Aib = CC(C)(N)C(=O)O Some results are limits rather than exact numbers.

One assay addresses GLP-1R (Homo sapiens, UniProt P43220). Put plainly: HitHunter cAMP assay (GLP-1R). The class given is cell-based. The following applies: cAMP; for Emax: read-out: (Emax) GLP-1R. In short, it runs like this:
(§1)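 cAMP accumulation read by luminescent HitHunter immunocompetition after 30 min room-temperature agonist stimulation. Agonists tested as 22-point twofold dilutions, in duplicate, on 10,000 cells/well in HBSS containing 625 μM IBMX, 10 mM HEPES and 0.2% BSA.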
For orientation: Changes in cAMP serve as a functional read-out for many G protein-coupled receptors.

Another assay concerns the target T1, GIP-R (Homo sapiens, UniProt P48546).
T1 sequence (P48546 22-466): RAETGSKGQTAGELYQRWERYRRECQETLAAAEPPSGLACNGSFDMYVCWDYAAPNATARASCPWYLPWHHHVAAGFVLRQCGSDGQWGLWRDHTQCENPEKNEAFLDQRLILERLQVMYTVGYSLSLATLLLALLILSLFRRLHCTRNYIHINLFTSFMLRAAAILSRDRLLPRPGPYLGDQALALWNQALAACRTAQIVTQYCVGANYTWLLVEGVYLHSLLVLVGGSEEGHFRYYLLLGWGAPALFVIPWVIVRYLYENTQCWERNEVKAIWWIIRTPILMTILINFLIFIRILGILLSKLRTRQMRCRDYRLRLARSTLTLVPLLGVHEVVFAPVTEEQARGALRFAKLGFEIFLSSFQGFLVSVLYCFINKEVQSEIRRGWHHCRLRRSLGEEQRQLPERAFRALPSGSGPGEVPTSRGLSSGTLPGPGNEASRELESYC
Description: HitHunter cAMP assay (GIP-R). It counts as cell-based. To be noted: cAMP; for Emax: read-out: (Emax) GIP-R. In short, it runs like this:
as §1

Setting [1] is: Table 3, read-out: EC50 GLP-1R/nM.
Where [2] appears, read: Table 3A, read-out: EC50 GLP-1R/nM.
[3] abbreviates: Table 3, read-out: EC50 GIP-R/nM.
Where [4] appears, read: Table 3A, read-out: EC50 GIP-R/nM.

GLP-1R, sequence (P43220 24-463): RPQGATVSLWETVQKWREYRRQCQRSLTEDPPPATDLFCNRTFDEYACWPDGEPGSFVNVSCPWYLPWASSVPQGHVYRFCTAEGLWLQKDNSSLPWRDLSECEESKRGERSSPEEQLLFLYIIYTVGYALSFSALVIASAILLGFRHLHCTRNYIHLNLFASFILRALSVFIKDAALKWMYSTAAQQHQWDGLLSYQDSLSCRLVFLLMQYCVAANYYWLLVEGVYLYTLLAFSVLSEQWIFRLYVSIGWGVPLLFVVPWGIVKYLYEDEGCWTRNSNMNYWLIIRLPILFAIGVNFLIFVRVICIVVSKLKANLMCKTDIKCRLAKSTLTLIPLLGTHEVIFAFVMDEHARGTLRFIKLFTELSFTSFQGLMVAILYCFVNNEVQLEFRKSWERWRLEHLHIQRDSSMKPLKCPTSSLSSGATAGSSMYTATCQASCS

With `CC[C@H](C)[C@H](NC(=O)[C@H](CO)NC(=O)[C@H](Cc1ccc(O)cc1)NC(=O)[C@H](CC(=O)O)NC(=O)[C@H](CO)NC(=O)[C@@H](NC(=O)[C@H](Cc1ccccc1)NC(=O)[C@@H](NC(=O)CNC(=O)[C@H](CCC(=O)O)NC(=O)CSCC(=O)NCCN1C(=O)c2ccccc2C1=O)[C@@H](C)O)[C@@H](C)O)C(=O)N[C@@H](Cc1ccc(O)cc1)C(=O)N[C@@H](CC(C)C)C(=O)N[C@@H](CC(=O)O)C(=O)N[C@@H](CCCCN)C(=O)N[C@@H](CCC(N)=O)C(=O)N[C@@H](C)C(=O)N[C@@H](C)C(=O)NC(C)(C)C(=O)N[C@@H](CCC(=O)O)C(=O)N[C@@H](Cc1ccccc1)C(=O)N[C@H](C(=O)N[C@@H](CCC(=O)O)C(=O)N[C@@H](Cc1c[nH]c2ccccc12)C(=O)N[C@@H](CC(C)C)C(=O)N[C@@H](CC(C)C)C(=O)N[C@@H](C)C(=O)NCC(=O)NCC(=O)N1CCC[C@H]1C(=O)N[C@@H](CO)C(=O)N[C@@H](CO)C(=O)NCC(=O)N[C@@H](C)C(=O)N1CCC[C@H]1C(=O)N1CCC[C@H]1C(=O)N1CCC[C@H]1C(=O)N[C@@H](CO)C(=O)N[C@@H](CCCCN)C(N)=O)C(C)C` [Compound 149] (X1-EGTFTSDYSIYLDKQAA[Aib]EFVEWLLAGGPSSGAPPPSK-NH2), the EC50 at GLP-1R (EC50 GLP-1R/nM, Table 3) was 1 to 10 nM; at GLP-1R (EC50 GLP-1R/nM, Table 3A) it was 1 to 10 nM; on GIP-R (EC50 GIP-R/nM, Table 3), less than 0.1 nM; on GIP-R (EC50 GIP-R/nM, Table 3A) it was less than 0.1 nM. In addition, the Emax on GLP-1R (Table 3) was 86 to 92%; at GLP-1R (Table 3A) it was 86 to 92%; at GIP-R (Table 3) it was 113%; on GIP-R (Table 3A) it was 113%.

For `CC[C@H](C)[C@H](NC(=O)[C@H](CO)NC(=O)[C@H](Cc1ccc(O)cc1)NC(=O)[C@H](CC(=O)O)NC(=O)[C@H](CO)NC(=O)[C@@H](NC(=O)[C@H](Cc1ccccc1)NC(=O)[C@@H](NC(=O)CNC(=O)[C@H](CCC(=O)O)NC(=O)CSCC(=O)NCCN1C(=O)[C@@H]2[C@H](C1=O)C2(C)C)[C@@H](C)O)[C@@H](C)O)C(=O)N[C@@H](Cc1ccc(O)cc1)C(=O)N[C@@H](CC(C)C)C(=O)N[C@@H](CC(=O)O)C(=O)N[C@@H](CCCCN)C(=O)N[C@@H](CCC(N)=O)C(=O)N[C@@H](C)C(=O)N[C@@H](C)C(=O)NC(C)(C)C(=O)N[C@@H](CCC(=O)O)C(=O)N[C@@H](Cc1ccccc1)C(=O)N[C@H](C(=O)N[C@@H](CC(N)=O)C(=O)N[C@@H](Cc1c[nH]c2ccccc12)C(=O)N[C@@H](CC(C)C)C(=O)N[C@@H](CC(C)C)C(=O)N[C@@H](C)C(=O)NCC(=O)NCC(=O)N1CCC[C@H]1C(=O)N[C@@H](CO)C(=O)N[C@@H](CO)C(=O)NCC(=O)N[C@@H](C)C(=O)N1CCC[C@H]1C(=O)N1CCC[C@H]1C(=O)N1CCC[C@H]1C(=O)N[C@@H](CO)C(=O)N[C@@H](CCCCN)C(N)=O)C(C)C` [Compound 110], the EC50 on GLP-1R (EC50 GLP-1R/nM, Table 3) was 10 to 100 nM; on GLP-1R (EC50 GLP-1R/nM, Table 3A), 10 to 100 nM; on GIP-R (EC50 GIP-R/nM, Table 3) it was 10 to 100 nM; at GIP-R (EC50 GIP-R/nM, Table 3A), 10 to 100 nM. Besides, the Emax on GLP-1R (Table 3) came to 88%; on GLP-1R (Table 3A), 88%; on GIP-R (Table 3), 33%; at GIP-R (Table 3A), 33%.

Take `CCCCCCCCCCCCCCCC(=O)N[C@@H](CCC(=O)NCCCC[C@H](NC(=O)[C@H](CO)NC(=O)[C@@H]1CCCN1C(=O)[C@@H]1CCCN1C(=O)[C@@H]1CCCN1C(=O)[C@H](C)NC(=O)CNC(=O)[C@H](CO)NC(=O)[C@H](CO)NC(=O)[C@@H]1CCCN1C(=O)CNC(=O)CNC(=O)[C@H](C)NC(=O)[C@H](CC(C)C)NC(=O)[C@H](CC(C)C)NC(=O)[C@H](Cc1c[nH]c2ccccc12)NC(=O)[C@H](CC(N)=O)NC(=O)[C@@H](NC(=O)[C@H](Cc1ccccc1)NC(=O)[C@H](CCC(=O)O)NC(=O)C(C)(C)NC(=O)[C@H](C)NC(=O)[C@H](C)NC(=O)[C@H](CCC(N)=O)NC(=O)[C@H](CCCCN)NC(=O)[C@H](CC(=O)O)NC(=O)[C@H](CC(C)C)NC(=O)[C@H](Cc1ccc(O)cc1)NC(=O)[C@@H](NC(=O)[C@H](CO)NC(=O)[C@H](Cc1ccc(O)cc1)NC(=O)[C@H](CC(=O)O)NC(=O)[C@H](CO)NC(=O)[C@@H](NC(=O)[C@H](Cc1ccccc1)NC(=O)[C@@H](NC(=O)CNC(=O)[C@H](CCC(=O)O)NC(=O)CSCC(=O)NCCN1C(=O)CCN1C)[C@@H](C)O)[C@@H](C)O)[C@@H](C)CC)C(C)C)C(N)=O)C(=O)O` [Compound 55]: the Emax is 104% at GLP-1R (Table 3), 104% on GLP-1R (Table 3A), 47% on GIP-R (Table 3) and 47% at GIP-R (Table 3A). For the same molecule, the EC50 at GLP-1R (setting [1]) was in the range of 0.1 to 1 nM; on GLP-1R (setting [2]), 0.1 to 1 nM; at GIP-R (setting [3]) it was 1 to 10 nM; on GIP-R (setting [4]) it was 1 to 10 nM.

As to `CCCCCCCCCCCCCCCC(=O)N[C@@H](CCC(=O)NCCCC[C@H](NC(=O)[C@H](CO)NC(=O)[C@@H]1CCCN1C(=O)[C@@H]1CCCN1C(=O)[C@@H]1CCCN1C(=O)[C@H](C)NC(=O)CNC(=O)[C@H](CO)NC(=O)[C@H](CO)NC(=O)[C@@H]1CCCN1C(=O)CNC(=O)CNC(=O)[C@H](C)NC(=O)[C@H](CC(C)C)NC(=O)[C@H](CC(C)C)NC(=O)[C@H](Cc1c[nH]c2ccccc12)NC(=O)[C@H](CC(N)=O)NC(=O)[C@@H](NC(=O)[C@H](Cc1ccccc1)NC(=O)[C@H](CCC(=O)O)NC(=O)C(C)(C)NC(=O)[C@H](C)NC(=O)[C@H](C)NC(=O)[C@H](CCC(N)=O)NC(=O)[C@H](CCCCN)NC(=O)[C@H](CC(=O)O)NC(=O)[C@H](CC(C)C)NC(=O)[C@H](Cc1ccc(O)cc1)NC(=O)[C@@H](NC(=O)[C@H](CO)NC(=O)[C@H](Cc1ccc(O)cc1)NC(=O)[C@H](CC(=O)O)NC(=O)[C@H](CO)NC(=O)[C@@H](NC(=O)[C@H](Cc1ccccc1)NC(=O)[C@@H](NC(=O)CNC(=O)[C@H](CCC(=O)O)NC(=O)CCCNC(=O)CCN1C(=O)CSC1=O)[C@@H](C)O)[C@@H](C)O)[C@@H](C)CC)C(C)C)C(N)=O)C(=O)O` [Compound 51], the maximal response (Emax) stood at 98% on GLP-1R (Table 3), 98% on GLP-1R (Table 3A), 65% at GIP-R (Table 3) and 65% at GIP-R (Table 3A). For the same molecule, the EC50 on GLP-1R (setting [1]) fell in the range of 0.1 to 1 nM; on GLP-1R (setting [2]), 0.1 to 1 nM; at GIP-R (setting [3]), 1 to 10 nM; at GIP-R (setting [4]), 1 to 10 nM.

As for `CCCCCCCCCCCCCCCC(=O)N[C@@H](CCC(=O)NCCCC[C@H](NC(=O)[C@H](CO)NC(=O)[C@@H]1CCCN1C(=O)[C@@H]1CCCN1C(=O)[C@@H]1CCCN1C(=O)[C@H](C)NC(=O)CNC(=O)[C@H](CO)NC(=O)[C@H](CO)NC(=O)[C@@H]1CCCN1C(=O)CNC(=O)CNC(=O)[C@H](C)NC(=O)[C@H](CC(C)C)NC(=O)[C@H](CC(C)C)NC(=O)[C@H](Cc1c[nH]c2ccccc12)NC(=O)[C@H](CC(N)=O)NC(=O)[C@@H](NC(=O)[C@H](Cc1ccccc1)NC(=O)[C@H](CCC(=O)O)NC(=O)C(C)(C)NC(=O)[C@H](C)NC(=O)[C@H](C)NC(=O)[C@H](CCC(N)=O)NC(=O)[C@H](CCCCN)NC(=O)[C@H](CC(=O)O)NC(=O)[C@H](CC(C)C)NC(=O)[C@H](Cc1ccc(O)cc1)NC(=O)[C@@H](NC(=O)[C@H](CO)NC(=O)[C@H](Cc1ccc(O)cc1)NC(=O)[C@H](CC(=O)O)NC(=O)[C@H](CO)NC(=O)[C@@H](NC(=O)[C@H](Cc1ccccc1)NC(=O)[C@@H](NC(=O)CNC(=O)[C@H](CCC(=O)O)NC(=O)CSCC(=O)NCCN1C(=O)C[C@@H](CC)C1=O)[C@@H](C)O)[C@@H](C)O)[C@@H](C)CC)C(C)C)C(N)=O)C(=O)O` (single isomer, unassigned) [Compound 61], the Emax was determined as 96% on GLP-1R (Table 3), 96% at GLP-1R (Table 3A), 56% at GIP-R (Table 3) and 56% at GIP-R (Table 3A).

The term Emax denotes the maximal effect, on the per cent scale that the assay sets.
